From the supplement of paper PMC10307832

Key:
Test in all cases: relative viability (nuclei count vs DMSO), 5 days (fraction); higher = more cells survive
Bicalutamide + Dasatinib = compound: CC(O)(CS(=O)(=O)c1ccc(F)cc1)C(=O)Nc1ccc(C#N)c(C(F)(F)F)c1 [Bicalutamide] + Cc1nc(Nc2ncc(C(=O)Nc3c(C)cccc3Cl)s2)cc(N2CCN(CCO)CC2)n1 [Dasatinib] (partner 0.075 µM)
Method in brief: (§1)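 Nuclei were stained with Hoechst during a one-step fixation (final 0.05% Triton X-100, 1% formaldehyde, 1 ug/ml Hoechst) carried out 5 days after dosing, then counted on 4× images. The cells, lung cancer lines in 1536-well plates, had been dosed by pin tool the day after seeding with one drug alone or a fixed anchor-drug dose plus five library-drug doses (not always all listed) in √10 steps. Relative viability is the nuclei count in treated wells divided by that in vehicle wells, and each value is the median of duplicate plates.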

[1] = compound: CC(O)(CS(=O)(=O)c1ccc(F)cc1)C(=O)Nc1ccc(C#N)c(C(F)(F)F)c1 [Bicalutamide] + CCNC(=O)c1noc(-c2cc(C(C)C)c(O)cc2O)c1-c1ccc(CN2CCOCC2)cc1 [Luminespib] (partner 0.01 µM)
Method in brief: as §1

[2] = compound: C(C(=O)C(=O)O)Br [Bromopyruvate] + Nc1ncn([C@H]2C[C@H](O)[C@@H](CO)O2)c(=O)n1 [Decitabine] (partner 2 µM)
Method in brief: as §1

[3] = compound: C(C(=O)C(=O)O)Br [Bromopyruvate] + CC(C)C[C@H](NC(=O)[C@H](Cc1ccccc1)NC(=O)c1cnccn1)B(O)O [Bortezomib] (partner 0.002 µM)
Method in brief: as §1

Cell Line | relative viability (Bicalutamide + Dasatinib; first compound 0.08 µM) | relative viability (Bicalutamide + Dasatinib; first compound 0.253 µM) | relative viability (Bicalutamide + Dasatinib; first compound 0.8 µM) | relative viability (Bicalutamide + Dasatinib; first compound 2.53 µM) | relative viability ([1]; first compound 0.08 µM) | relative viability ([1]; first compound 0.253 µM) | relative viability ([1]; first compound 0.8 µM) | relative viability ([1]; first compound 2.53 µM) | relative viability ([2]; first compound 1 µM) | relative viability ([2]; first compound 3.162 µM) | relative viability ([2]; first compound 10 µM) | relative viability ([2]; first compound 31.62 µM) | relative viability ([2]; first compound 100 µM) | relative viability ([3]; first compound 1 µM) | relative viability ([3]; first compound 3.162 µM) | relative viability ([3]; first compound 10 µM) | relative viability ([3]; first compound 31.62 µM) | relative viability ([3]; first compound 100 µM)
201T | 0.575 | 0.566 | 0.581 | 0.57 | 1.06 | 1.03 | 1.02 | 1.1 | 0.882 | 0.835 | 0.849 | 0.85 | 0.928 | 1.11 | 1.08 | 1.11 | 1.1 | 1.03
A549 |  |  |  |  |  |  |  |  | 0.225 | 0.271 | 0.36 | 0.308 | 0.266 |  |  |  |  | 
A-427 | 0.643 | 0.631 | 0.791 | 0.607 | 1.02 | 0.761 | 1 | 0.763 | 0.581 | 0.567 | 0.612 | 0.631 | 0.568 | 0.999 | 1.02 | 0.931 | 1.05 | 1.06
ABC-1 | 0.658 | 0.476 | 0.725 | 0.475 | 0.558 | 0.296 | 0.749 | 0.596 | 0.888 |  |  |  | 0.885 | 0.342 | 0.31 |  | 0.347 | 0.332
BEN | 0.355 | 0.316 | 0.393 | 0.38 | 0.416 | 0.344 | 0.541 | 0.39 | 0.726 | 0.685 | 0.773 | 0.617 | 0.674 | 0.897 | 0.724 | 0.78 | 0.836 | 0.682
CAL-12T | 0.492 | 0.325 | 0.445 | 0.256 | 0.707 | 0.38 | 0.712 | 0.454 |  |  |  |  |  | 1.04 | 1.08 | 0.904 | 0.977 | 0.934
COR-L23 | 0.628 | 0.513 | 0.407 | 0.476 | 0.718 | 0.699 | 0.764 | 0.649 | 0.407 | 0.404 | 0.469 | 0.379 | 0.281 | 0.943 | 0.939 | 1.12 | 0.975 | 0.486
COR-L 105 | 0.325 | 0.257 | 0.325 | 0.285 | 1.04 | 0.721 | 0.911 | 0.652 | 0.59 | 0.674 | 0.75 | 0.706 | 0.525 | 0.559 | 0.876 | 0.526 | 0.769 | 0.566
Calu-6 |  |  |  |  |  |  |  |  |  |  |  |  |  | 1.09 | 1.05 | 1.07 | 0.993 | 0.903
ChaGo-K-1 | 0.613 | 0.557 | 0.561 | 0.542 | 0.704 | 0.717 | 0.513 | 0.622 | 0.554 | 0.525 | 0.609 | 0.529 | 0.486 | 1.08 | 1.02 | 1.01 | 1.07 | 0.953
EBC-1 |  |  |  |  |  |  |  |  |  |  |  |  |  | 0.527 | 0.67 | 0.56 | 0.574 | 0.511
EKVX | 0.619 | 0.491 | 0.662 | 0.66 | 0.94 | 0.871 | 0.964 | 0.892 | 0.36 | 0.353 | 0.319 | 0.371 | 0.331 | 1.08 | 0.993 | 1.12 | 1.11 | 1.1
EMC-BAC-2 | 0.347 | 0.287 | 0.33 | 0.298 | 1.13 | 1.14 | 1.17 | 1.06 | 0.918 | 1.04 | 1 |  | 0.921 | 0.99 | 1.14 | 1.2 | 1.02 | 1.12
EPLC-272H | 0.375 | 0.336 | 0.454 | 0.321 | 0.178 | 0.293 | 1.17 | 0.154 | 0.371 | 0.376 | 0.426 | 0.437 | 0.389 | 0.844 | 0.952 | 1.03 | 0.862 | 1.08
H3255 | 0.491 | 0.39 |  | 0.359 | 0.827 | 0.857 |  | 0.813 | 0.514 | 0.705 | 0.794 | 0.609 | 0.622 | 0.877 | 0.723 | 0.981 | 0.719 | 0.892
HARA | 0.273 | 0.248 | 0.314 | 0.265 | 0.987 | 0.721 | 0.678 | 0.847 | 0.624 | 0.572 |  | 0.545 | 0.558 | 1.11 | 1.13 | 1.13 | 1.17 | 1.15
HCC-15 | 0.666 | 0.568 | 0.653 | 0.609 | 0.445 | 0.294 | 0.57 | 0.62 | 0.614 | 0.625 | 0.615 | 0.659 | 0.568 | 0.98 | 1.03 | 1.03 | 0.99 | 0.973
